The values below come from patent US8063071B2 (GlaxoSmithKline, LLC, priority 2007, dated 2011).

The experiment addresses T1, Recombinant human IKKβ (residues 1-737) (Homo sapiens, UniProt O14920).
T1 construct: Recombinant human IKKβ (residues 1-737); GST (C); made in house
T1 sequence (O14920 1-737): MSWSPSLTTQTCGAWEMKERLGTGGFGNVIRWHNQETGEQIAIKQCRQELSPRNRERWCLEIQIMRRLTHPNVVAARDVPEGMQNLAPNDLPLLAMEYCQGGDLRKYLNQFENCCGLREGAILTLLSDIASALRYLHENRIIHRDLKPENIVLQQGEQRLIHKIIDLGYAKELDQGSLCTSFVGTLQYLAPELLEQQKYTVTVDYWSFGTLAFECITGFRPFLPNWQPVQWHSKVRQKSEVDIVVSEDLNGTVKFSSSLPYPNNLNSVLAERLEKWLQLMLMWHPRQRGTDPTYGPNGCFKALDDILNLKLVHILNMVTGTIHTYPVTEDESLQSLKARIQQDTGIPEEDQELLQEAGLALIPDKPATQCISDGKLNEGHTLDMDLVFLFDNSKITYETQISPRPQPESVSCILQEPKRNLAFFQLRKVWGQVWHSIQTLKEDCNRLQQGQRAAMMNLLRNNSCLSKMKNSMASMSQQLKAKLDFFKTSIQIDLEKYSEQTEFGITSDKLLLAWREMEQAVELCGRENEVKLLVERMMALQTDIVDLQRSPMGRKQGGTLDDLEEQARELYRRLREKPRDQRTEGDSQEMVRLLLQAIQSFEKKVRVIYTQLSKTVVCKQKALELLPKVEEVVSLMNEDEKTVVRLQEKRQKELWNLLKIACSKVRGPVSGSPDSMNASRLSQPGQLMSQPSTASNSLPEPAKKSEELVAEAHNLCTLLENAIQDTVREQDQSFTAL
Nature of the experiment: IKK2 assay (TR-FRET). Type of experiment: biochemical. The following applies: ATP 1 μM final, read-out: pIC50 against IKK2 (converted). As for the experimental part: Recombinant human IKKβ (residues 1-737) was expressed in baculovirus as a C-terminal GST-tagged fusion protein, and its activity was assessed using a time-resolved fluorescence resonance energy transfer (TR-FRET) assay. Briefly, IKK2 (0.5 nM-5 nM final) diluted in assay buffer (50 mM HEPES, 10 mM MgCl2, 1 mM CHAPS pH 7.4 with 1 mM DTT and 0.01% w/v BSA) was added to wells containing various concentrations of compound or DMSO vehicle (1.7% final). The reaction was initiated by the addition of GST-IB substrate (25 nM final)/ATP (1 μM final), in a total volume of 6 μl. The reaction was incubated for 15 minutes at room temperature, then terminated by the addition of 3 μl of detection reagent in buffer containing 50 mM EDTA (100 mM HEPES pH 7.4, 150 mM NaCl, 50 mM EDTA and 0.01% w/v BSA) containing antiphosphoserine-IB-32/36 monoclonal antibody 12C2 (Cell Signalling Technology, Beverly Mass., USA) labelled with W-1024 europium chelate (Wallac OY, Turku, Finland), and an APC-labelled anti-GST antibody (Prozyme, San Leandro, Calif., USA) was added and the reaction was further incubated for 60 minutes at room temperature. The degree of phosphorylation of GST-IB was measured using a BMG Rubystar plate reader (BMG Labtech, Aylesbury, UK) as a ratio of specific 665 nm energy transfer signal to reference europium 620 nm signal.
A general note: TR-FRET usually uses a lanthanide donor and a delayed reading to cut background.

Where a name gives a salt, the structure may show the parent alone.

With `CCS(=O)(=O)N1CCC(c2c[nH]c3c(C(N)=O)cc(-c4ccc(CN5CCCC5)cc4)cc23)CC1` [Example 149, 3-[1-(ethylsulfonyl)-4-piperidinyl]-5-[4-(1-pyrrolidinylmethyl)phenyl]-1H-indole-7-carboxamide trifluoroacetate], the IC50 is at most 10 µM.
On to `CCS(=O)(=O)N1CCC(c2c[nH]c3c(C(N)=O)cc(-c4ccc(CN[C@@H](C)CO)cc4)cc23)CC1` [Example 150, 3-[1-(ethylsulfonyl)-4-piperidinyl]-5-[4-({[(1S)-2-hydroxy-1-methylethyl]amino}methyl)phenyl]-1H-indole-7-carboxamide trifluoroacetate], for which the IC50 was at most 10 µM.
For the compound `CCS(=O)(=O)N1CCC(c2c[nH]c3c(C(N)=O)cc(-c4ccc(CNC[C@@H](C)O)cc4)cc23)CC1` [Example 152, 3-[1-(ethylsulfonyl)-4-piperidinyl]-5-[4-({[(2R)-2-hydroxypropyl]amino}methyl)phenyl]-1H-indole-7-carboxamide trifluoroacetate], the IC50 was at most 10 µM.
To `CCS(=O)(=O)N1CCC(c2c[nH]c3c(C(N)=O)cc(-c4ccc(CN[C@H](C)C(C)C)s4)cc23)CC1` [Example 183, 5-[5-({[(1R)-1,2-dimethylpropyl]amino}methyl)-2-thienyl]-3-[1-(ethylsulfonyl)-4-piperidinyl]-1H-indole-7-carboxamide] belongs at most 10 µM.
To `CCS(=O)(=O)N1CCC(c2c[nH]c3c(C(N)=O)cc(-c4ccc(CNCCC(C)(C)C)s4)cc23)CC1` [Example 199, 5-(5-{[(3,3-dimethylbutyl)amino]methyl}-2-thienyl)-3-[1-(ethylsulfonyl)-4-piperidinyl]-1H-indole-7-carboxamide] belongs at most 10 µM; to `CCN(C)c1ccc(-c2cc(C(N)=O)c3[nH]cc(C4CCN(S(=O)(=O)CC)CC4)c3c2)cn1` [Example 225, 5-{6-[ethyl(methyl)amino]-3-pyridinyl}-3-[1-(ethylsulfonyl)-4-piperidinyl]-1H-indole-7-carboxamide trifluoroacetate], at most 10 µM.
To `CCS(=O)(=O)N1CCC(c2c[nH]c3c(C(N)=O)cc(-c4ccc(N(C)C)nc4)cc23)CC1` [Example 226, 5-[6-(dimethylamino)-3-pyridinyl]-3-[1-(ethylsulfonyl)-4-piperidinyl]-1H-indole-7-carboxamide trifluoroacetate] belongs at most 10 µM; to `CCS(=O)(=O)N1CCC(c2c[nH]c3c(C(N)=O)cc(-c4ccc(NC(C)C)nc4)cc23)CC1` [Example 228, 3-[1-(ethylsulfonyl)-4-piperidinyl]-5-{6-[(1-methylethyl)amino]-3-pyridinyl}-1H-indole-7-carboxamide trifluoroacetate], at most 10 µM.
Turning to `CCS(=O)(=O)N1CCC(c2c[nH]c3c(C(N)=O)cc(-c4ccc(N5CCOCC5)nc4)cc23)CC1` [Example 229, 3-[1-(ethylsulfonyl)-4-piperidinyl]-5-[6-(4-morpholinyl)-3-pyridinyl]-1H-indole-7-carboxamide], the IC50 is at most 10 µM.
To `CCS(=O)(=O)N1CCC(c2c[nH]c3c(C(N)=O)cc(-c4cnn(CCN(C)C)c4)cc23)CC1` [Example 252, 5-{1-[2-(dimethylamino)ethyl]-1H-pyrazol-4-yl}-3-[1-(ethylsulfonyl)-4-piperidinyl]-1H-indole-7-carboxamide] belongs at most 10 µM.
Under `CCS(=O)(=O)N1CCC(c2c[nH]c3c(C(N)=O)cc(-c4ccc(OC)c(CN(C)C)c4)cc23)CC1` [Example 263, 5-[3-[(dimethylamino)methyl]-4-(methyloxy)phenyl]-3-[1-(ethylsulfonyl)-4-piperidinyl]-1H-indole-7-carboxamide trifluoroacetate] stands at most 10 µM; under `CCS(=O)(=O)N1CCC(c2c[nH]c3c(C(N)=O)cc(-c4ccc(OC)c(CN5CCOCC5)c4)cc23)CC1` [Example 264, 3-[1-(ethylsulfonyl)-4-piperidinyl]-5-[4-(methyloxy)-3-(4-morpholinylmethyl)phenyl]-1H-indole-7-carboxamide trifluoroacetate], at most 10 µM.
Under `CCS(=O)(=O)N1CCC(c2c[nH]c3c(C(N)=O)cc(-c4ccc(OC)c(CNC(C)C)c4)cc23)CC1` [Example 265, 3-[1-(ethylsulfonyl)-4-piperidinyl]-5-[3-{[(1-methylethyl)amino]methyl}-4-(methyloxy)phenyl]-1H-indole-7-carboxamide trifluoroacetate] stands at most 10 µM; under `CCS(=O)(=O)N1CCC(c2c[nH]c3c(C(N)=O)cc(-c4ccc(OC)c(CNC)c4)cc23)CC1` [Example 266, 3-[1-(ethylsulfonyl)-4-piperidinyl]-5-[3-[(methylamino)methyl]-4-(methyloxy)phenyl]-1H-indole-7-carboxamide trifluoroacetate], at most 10 µM; under `CCS(=O)(=O)N1CCC(c2c[nH]c3c(C(N)=O)cc(-c4ccc(OC)c(CNCC(C)(C)C)c4)cc23)CC1` [Example 267, 5-[3-{[(2,2-dimethylpropyl)amino]methyl}-4-(methyloxy)phenyl]-3-[1-(ethylsulfonyl)-4-piperidinyl]-1H-indole-7-carboxamide trifluoroacetate], at most 10 µM.
For the compound `CCS(=O)(=O)N1CCC(c2c[nH]c3c(C(N)=O)cc(-c4cnn(CCN(C)CCO)c4)cc23)CC1` [Example 268, 3-[1-(ethylsulfonyl)-4-piperidinyl]-5-(1-{2-[(2-hydroxyethyl)(methyl)amino]ethyl}-1H-pyrazol-4-yl)-1H-indole-7-carboxamide], the IC50 is at most 10 µM.
For `CCNCc1cc(CNCC)cc(-c2cc(C(N)=O)c3[nH]cc(C4CCN(S(=O)(=O)CC)CC4)c3c2)c1` [Example 277, 5-{3,5-bis[(ethylamino)methyl]phenyl}-3-[1-(ethylsulfonyl)-4-piperidinyl]-1H-indole-7-carboxamide trifluoroacetate], the IC50 was over 10 µM.
On to `CCS(=O)(=O)N1CCC(c2c[nH]c3c(C(N)=O)cc(-c4cc(CN(C)C)cc(CN(C)C)c4)cc23)CC1` [Example 278, 5-{3,5-bis[(dimethylamino)methyl]phenyl}-3-[1-(ethylsulfonyl)-4-piperidinyl]-1H-indole-7-carboxamide trifluoroacetate], for which the IC50 was over 10 µM.
Consider `CCS(=O)(=O)N1CCC(c2c[nH]c3c(C(N)=O)cc(-c4cccc(C5CCCCN5)c4)cc23)CC1` (centres unmarked) [Example 279, 3-[1-(ethylsulfonyl)-4-piperidinyl]-5-[3-(2-piperidinyl)phenyl]-1H-indole-7-carboxamide trifluoroacetate], for which the IC50 is at most 10 µM.
Under `CCNC(C)c1cccc(-c2cc(C(N)=O)c3[nH]cc(C4CCN(S(=O)(=O)CC)CC4)c3c2)c1` (centres unmarked) [Example 280, 5-{3-[1-(ethylamino)ethyl]phenyl}-3-[1-(ethylsulfonyl)-4-piperidinyl]-1H-indole-7-carboxamide trifluoroacetate] stands at most 10 µM; under `CCS(=O)(=O)N1CCC(c2c[nH]c3c(C(N)=O)cc(-c4cccc(C(C)N(C)C)c4)cc23)CC1` (centres unmarked) [Example 281, 5-{3-[1-(dimethylamino)ethyl]phenyl}-3-[1-(ethylsulfonyl)-4-piperidinyl]-1H-indole-7-carboxamide trifluoroacetate], at most 10 µM; under `CCS(=O)(=O)N1CCC(c2c[nH]c3c(C(N)=O)cc(-c4cc(F)cc(CNC)c4)cc23)CC1` [Example 282, 3-[1-(ethylsulfonyl)-4-piperidinyl]-5-{3-fluoro-5-[(methylamino)methyl]phenyl}-1H-indole-7-carboxamide trifluoroacetate], at most 10 µM.
Under `CCNCc1cc(F)cc(-c2cc(C(N)=O)c3[nH]cc(C4CCN(S(=O)(=O)CC)CC4)c3c2)c1` [Example 283, 5-{3-[(ethylamino)methyl]-5-fluorophenyl}-3-[1-(ethylsulfonyl)-4-piperidinyl]-1H-indole-7-carboxamide trifluoroacetate] stands at most 10 µM.
